From article PMC5382548 (Scientific Reports, 2015)

Key:
[1] = system: HT21 (DNA, G4) GGGTTAGGGTAGGGTTAGGG; experiment: circular dichroism; settings: 60 mM K+; K-cacodylate pH 7.4, 25 °C; hybrid G4 changes to antiparallel
KRAS21R G4 = experiment: Binding stoichiometry, Job plot (continuous variation); parameters: species or system human; settings: [3e] + [G4] = 4 μM, 25°C
Description: In order to determine the number of ligand-binding sites, continuous variation analysis (Job plot)[27] of 3e with KRAS21R was performed. Plotting of fluorescence as a function of the mole fraction of 3e (χ) gave linear dependences at high and low molar fractions (Figure S9b).
The binding stoichiometry of indolo[3,2-c]quinoline derivative 3e with KRAS21R G4 was obtained by spectrophotofluorimetry at 25°C using the Job method of continuous variation. A previously annealed G4 stock solution at 25 μM (heating to 95°C for 10 min, followed by slow cooling to RT) of the non-labelled oligonucleotide sequences KRAS21R in K-cacodylate buffer pH 7.4 (containing 60 mM K^+) was used. Test compound was prepared at 1 mM concentration in HPLC-grade water (10% DMSO) stock solution. The rest of the dilutions were performed using K-cacodylate buffer. Total concentration of ligand and G4 in the solution was kept constant ([3e] + [G4] = 4 μM) as previously described.
Figure S9 | a) CD titration spectra of the KRAS21R and induced by titration with 3e in K-cacodylate buffer pH 7.4, containing 60 mM K+ at 25 °C. Solid black line – Pure G4 DNA at […]
sequentially from the top around 260 nm; b) Job Plot of 3e in complex with KRAS21R G4 in K-cacodylate buffer pH 7.4, containing 60 mM K+, at 25 °C. The sum of the concentrations of 3e and G4 was kept constant at 4 µM.
Figure S10. […]

mouse KRAS promoter = system: mouse KRAS promoter; parameters: method as in PMID 16687659; settings: 3–20 μM 24 hours prior to transfection; cited from earlier work
[2] = system: 26ds (ds26) (DNA, duplex) CAATCGGATCGAATTCGATCCGATTG; experiment: spectrofluorimetric titration, one-site saturation fit; settings: 60 mM K+; K-cacodylate pH 7.4, 25 °C; 1 μM compound; SD ≤ 0.2 × 10^6
[3] = system: KRAS21R (DNA, G4) AGGGCGGTGTGGGAAGAGGGA; experiment: as above; settings: 60 mM K+; K-cacodylate pH 7.4, 25 °C; 1 μM compound; SD ≤ 0.2 × 10^6
[4] = system: p21^KRAS protein in HCT116 cells; experiment: p21KRAS protein immunoblot, HCT116; assay type: cell-based, human; settings: IC50 concentration, 72 h; cell line not given
Description: (a) KRAS mRNA steady-state expression was evaluated by Taqman Real-time RT-PCR using specific Taqman Assays for KRAS and β-Actin for normalization. KRAS mRNA steady-state expression levels were calculated by the ΔΔCt method, using DMSO (vehicle control) for calibration; and (b) KRAS protein steady-state expression evaluated by immunoblot relative to control (DMSO vehicle) Results are expressed as mean ± SEM of at least three independent experiments; *p < 0.05 and §p < 0.01 from DMSO (vehicle control).
In agreement with its reported capacity to accumulate in cytoplasm, bind to UTR1 and UTR2 RNA G4[14][20] and inhibit NRAS translation, TMPyP4 reduced the levels of p21^KRAS by ~75% in HCT116 cells. […]
Samples were homogenized in ice-cold 1:1 solution of buffer A [10 mm Tris•HCl pH 7.6, 5 mm MgCl2, 1.5 mm KOAc, 2 mm dithiothreitol (DTT), and Halt Protease and Phosphatase inhibitor cocktail, EDTA-free (#78445, Thermo Scientific)] and buffer 2X (10 mm Tris•HCl pH 7.6, 1% Nonidet-P40, and Halt Protease and Phosphatase inhibitor cocktail), by vigorous vortexing and incubated on ice for 30 min. […] Protein concentrations were determined using the BioRad protein assay kit according to the manufacturer’s instructions. Steady-state levels of KRAS protein were determined by immunoblot analysis. […] Steady-state protein levels were expressed as mean ±SEM from at least three independent experiments.

In the case of `CCN(CC)CCCNc1ccc2c(c1)[nH]c1c2c[n+](C)c2ccc(NCCCN(CC)CC)cc12.[Cl-]` [3e], the binding [1] is reported as “yes” and the “Job plot molar fraction at intersection” value (KRAS21R G4) is reported as 0.61.
For `C[n+]1ccc(-c2c3nc(c(-c4cc[n+](C)cc4)c4ccc([nH]4)c(-c4cc[n+](C)cc4)c4ccc([nH]4)c(-c4cc[n+](C)cc4)c4nc2C=C4)C=C3)cc1` [TMPyP4, reference compound], the “Reduction of mouse KRAS promoter activity” value (mouse KRAS promoter) is given as 80%.
Compound `Cn1cc2c3ccccc3nc-2c2cc(Br)ccc21` [2a, 2-bromo-5-methyl-indolo[3,2-c]quinoline] has a Ka [2] of 800000 M⁻¹ and a Ka [3] of 1.7e+06 M⁻¹.
In the case of `CCN(CC)CCCNc1ccc2c(c1)c1[nH]c3ccccc3c1c[n+]2C` [2d], the “KRAS protein levels reduced to (% remaining)” value [4] is reported as ~ 50%.
